According to US20260069555A1, “Compositions and Methods for Modulating the Effect of Beta-Blocker Activity in a Subject” (Duke University, priority 2021, published 2026):
Several values for one entry are separate records, joined by “and”; a condition that tells them apart may be missing. Equal values may be shown once.

Key:
[1] = molecular target: β2AR (Homo sapiens, UniProt P07550); assay: 125I-CYP competition radioligand binding at β2AR in HDL particles
[2] = molecular target: β2AR-Gs complexes (Homo sapiens, UniProt P07550); assay: 35S-GTPγS binding to heterotrimeric Gs, β2AR in HDL; details: epinephrine 10 μM stimulation
[3] = molecular target: endogenously expressed β2AR (Homo sapiens, UniProt P07550); assay: GloSensor cAMP generation in HEK293 cells; details: 30 μM modulator
[4] = molecular target: T1, β1AR (Homo sapiens, UniProt P08588); assay: EGFR transactivation (EGFR endocytosis BRET) in HEK293 cells stably expressing β1ARs; format: cell-based
Protocol: HEK293 cells stably expressing β1ARs were transfected with 250 ng of EGFR-RlucII and 1 μg of rGFP-FYVE constructs. The day following transfection, cells were re-seeded onto poly-L-ornithine coated 96-well plates at ˜25,000 cells per well. […] The cell-permeable substrate coelenterazine 400a (final concentrations of 5 μM) was added 3˜6 min before BRET measurements.

[5] = molecular target: T1, β1AR; assay: ERK activation assay in HEK293 cells expressing β1ARs; format: cell-based; details: for dependency of ERK activation on β-arrestin: β-arrestin1/2 knockout vs wild type HEK293 cells
Source text: ERK activation assay: HEK293 cells with stable overexpression of FLAG-tagged β1AR or β-arrestin knockout were described previously. Cells were periodically treated with BM Cyclin (Roche) to avoid mycoplasma contamination. […] Cell lysate samples were separated by SDS-PAGE, transferred to PVDF membrane (Bio-Rad) and subjected to immunoblotting with anti-MAPK 1/2 (EMD Millipore) and anti-p44/42 MAPK (Cell Signaling) antibodies. Immunoblots were detected using enhanced chemiluminescence (Thermo Fisher Scientific) and analyzed with ImageJ software. The densitometry values from pERK blots were normalized to respective total ERK blots, and normalized to the maximum response of control group in each experiment.

[6] = molecular target: T1, β1AR; assay: GloSensor cAMP assay in HEK293 cells transfected with β1ARs; details: for activation of cAMP: β-blockers as stimulating ligands
[7] = molecular target: T1, β1AR; assay: 125I-CYP competition binding at β1AR-HDL particles (Example 2)
[8] = test system: mouse hearts; assay: Ischemia/reperfusion-induced cell apoptosis in mouse heart (TUNEL); format: in vivo
Protocol: Ischemia reperfusion-induced cell apoptosis in mouse heart: Eight to twelve-week-old C57BL/6J wild-type mice or eight to twenty-seven-week-old αMyHC-Cre:Arrblflox/flox/Arrb2flox/flox mice of both sexes were used. Animals were randomly assigned to, and the researchers were blinded for, treatment groups. […] After 3 days of treatment, cardiac ischemia was produced by the ligation of left anterior descending coronary artery. After 45 min, the ligation was released to allow the blood flow to be restored for 45 min. […] The hearts were then embedded in optimum cutting temperature compound (Sakura Finetek) and snap frozen in liquid nitrogen. TUNEL staining on the cryo-sections were performed with in situ cell death detection kit (Sigma-Aldrich) according to the manufacturer's protocol. Sections were then mounted in ProLon Diamond Antifade Mountant with DAPI (Thermo Fisher Scientific). Images were recorded with Zeiss Axio Observer Z1 confocal microscope with 20× objective. In each heart, sections from different groups (from base to apex of the tissue, apart by 0.5 mm) were stained, and the group with maximum TUNEL-positive cells were used for quantification. At lease 9 images from 3 sections were quantified for each heart. The number of TUNEL-positive cells and the total number of nuclei as determined by DAPI staining were counted using ImageJ software.

[9] = test system: C57BL/6J wild-type mice; assay: Isoproterenol-induced hemodynamics in mouse heart; format: in vivo; details: 3 days
Protocol: Isoproterenol-induced hemodynamic in mouse heart: Eight to twelve-week-old C57BL/6J wild-type mice of both sexes were used. Animal experiments carried out were handled according to approved protocols and animal welfare regulations mandated by the Institutional Animal Care and Use Committee of Duke University Medical Center. […] After treatment, mice were anesthetized with ketamine (100 mg/kg) and xylazine (2.5 mg/kg). After bilateral vagotomy, a 1.4 French (0.46 mm) high fidelity micromanometer catheter (ADInstruments) connected to a pressure transducer (ADInstruments) was inserted into the left ventricle to monitor blood pressure. Basal blood pressure was recorded at steady state after the catheter insertion (2-3 min after insertion). Graded doses of isoproterenol were administered at 45 sec intervals by intravenous injection through a jugular vein. The blood pressure was monitored continuously and recorded at the steady state (35-45 sec after each injection). Data analysis was performed using LabChart 8 software (ADInstruments).

T1 sequence (P08588 whole entry): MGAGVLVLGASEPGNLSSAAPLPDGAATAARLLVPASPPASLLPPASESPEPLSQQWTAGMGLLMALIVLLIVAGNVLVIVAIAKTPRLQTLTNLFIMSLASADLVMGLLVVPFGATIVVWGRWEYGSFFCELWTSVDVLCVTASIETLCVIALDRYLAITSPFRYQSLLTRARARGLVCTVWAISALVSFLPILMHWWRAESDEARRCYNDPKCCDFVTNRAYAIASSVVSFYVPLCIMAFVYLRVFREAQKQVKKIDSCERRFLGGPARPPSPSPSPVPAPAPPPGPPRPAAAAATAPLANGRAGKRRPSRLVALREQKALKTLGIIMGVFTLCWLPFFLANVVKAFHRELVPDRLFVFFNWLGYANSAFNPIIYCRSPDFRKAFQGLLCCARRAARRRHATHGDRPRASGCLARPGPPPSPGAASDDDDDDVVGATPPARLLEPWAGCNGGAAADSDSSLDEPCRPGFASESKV
Chain of β2AR (P07550 whole entry): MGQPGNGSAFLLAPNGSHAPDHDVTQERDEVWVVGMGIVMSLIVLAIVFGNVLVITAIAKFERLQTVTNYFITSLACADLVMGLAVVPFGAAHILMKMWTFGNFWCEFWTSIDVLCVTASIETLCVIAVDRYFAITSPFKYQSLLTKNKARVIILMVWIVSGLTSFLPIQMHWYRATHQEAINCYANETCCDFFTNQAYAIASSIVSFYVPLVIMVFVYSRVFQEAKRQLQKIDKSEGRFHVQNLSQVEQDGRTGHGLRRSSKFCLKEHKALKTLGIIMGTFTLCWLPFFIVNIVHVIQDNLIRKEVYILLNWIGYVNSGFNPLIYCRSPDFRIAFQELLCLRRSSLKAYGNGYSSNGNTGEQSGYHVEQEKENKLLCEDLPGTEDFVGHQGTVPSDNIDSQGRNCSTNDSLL
Chain of endogenously expressed β2AR (P07550 whole entry): as above
Chain of β2AR-Gs complexes (P07550 whole entry, one chain of several): as the sequence (P07550 whole entry) above

CC(C)N(C)S(=O)(=O)c1ccc(Sc2ccc(C(N)=O)cc2)c(C(=O)N[C@@H](CC(N)=O)Cc2ccc(C(C)(C)C)cc2)c1 [A9, (R)—N-(4-amino-1-(4-(tert-butyl)phenyl)-4-oxobutan-2-yl)-2-((4-carbamoylphenyl)thio)-5-(N-isopropyl-N-methylsulfamoyl)benzamide]
PAM activity with agonists including epinephrine ([1]; affinity shifts, 20 μM analog): absolutely no PAM activity | Log KT (dissociation constant of PAM for receptor binding) ([1]; carvedilol-bound β2AR): −5.533 | cooperativity with carvedilol ([1]; compared with parent cmpd-6): retains its positive cooperativity with carvedilol | effect on agonist-stimulated activation of Gs / 35S-GTPγS binding to Gs [2]: markedly blocks | modulation of isoproterenol-stimulated cAMP generation [3]: classic NAM

COc1cc2ncnc(Nc3cccc(Cl)c3)c2cc1OC [AG1478]
effect on EGF-induced change in BRET ratio ([4]; 10 μM pretreatment): blocked

COc1ccc(Sc2ccc(S(=O)(=O)N(C)C(C)C)cc2C(=O)N[C@@H](CC(N)=O)Cc2ccc(C(C)(C)C)cc2)cc1 [Cmpd-6, (R)—N-(4-amino-1-(4-(tert-butyl)phenyl)-4-oxobutan-2-yl)-5-(N-isopropyl-N-methylsulfamoyl)-2-((4-methoxyphenyl)thio)benzamide]
PAM activity on the isoproterenol-induced EGFR transactivation ([4]; 30 μM Cmpd-6): no PAM activity | cooperativity on isoproterenol-stimulated ERK activation ([5]; 30 μM Cmpd-6): no cooperativity | effect on isoproterenol- or carvedilol-induced cAMP dose response curve ([6]; 30 μM Cmpd-6): no enhancement | cooperativity with the full agonists epinephrine and norepinephrine ([7]; 25 μM Cmpd-6): minimal positive cooperativity | enhancement of receptor binding affinity of carvedilol for β1ARs ([7]; FIG. 10A): 7.9 fold and ~8 fold | TUNEL positive cells in the ischemic zone ([8]; Cmpd-6 5 mg/kg/day alone, wild type mice): ~10% | potentiation of the inhibitory effect of carvedilol on heart rate and dP/dt max ([9]; Cmpd-6 5 mg/kg/day + carvedilol 1 mg/kg/day): only a modest potentiation

C=CCc1ccccc1OCC(O)CNC(C)C (stereo not shown) [alprenolol]
dependency of ERK activation on β-arrestin [5]: ~50% | activation of cAMP [6]: 20 % of the maximal isoproterenol response

CC(C)(Cc1c[nH]c2ccccc12)NCC(O)COc1ccccc1C#N (stereo not shown) [bucindolol]
dependency of ERK activation on β-arrestin [5]: independent of β-arrestin | activation of cAMP [6]: 40 % of the maximal isoproterenol response

COc1ccccc1OCCNCC(O)COc1cccc2[nH]c3ccccc3c12 (stereo not shown) [carvedilol]
effect on I/R induced apoptosis ([8]; 5 or 20 mg/kg/day, wild type mice): inhibited I/R induced apoptosis | effect on I/R-induced apoptosis ([8]; low or high dose (1 or 20 mg/kg/day), cardiomyocyte-specific β-arrestin1/2 knockout mice): did not reduce | effect on isoproterenol-induced hemodynamics (heart rate, dP/dt max) ([9]; 1 mg/kg/day, osmotic pump): minimal effect | effect on isoproterenol-induced hemodynamics (heart rate, dP/dt max) ([9]; higher doses (5, 20 mg/kg/day)): blocked both the heart rate and contractility response

EGF: EGF ligand of the EGFR
ligand-induced EGFR endocytosis (change in BRET ratio) ([4]; assay validation): robust change in BRET ratio
